In patent US7135464B2, “Method of administering decitabine” (SuperGen, Inc., priority 2002, dated 2006):
Where “and” joins values, the source holds several entries; their conditions need not be identical. Identical values can stand only once. Like-named read-outs stand apart in the source and are kept apart here.

Columns and labels:
[1] = aqueous solution, cited from earlier work
[2] = cited from earlier work
[3] = aqueous solution

decitabine remaining in active form ([3]; storage at 4° C. for 6 days): less than 50%
decitabine remaining in active form ([3]; storage at 25° C. for 1 day): less than 50%
Structure (SMILES): Nc1ncn([C@H]2C[C@H](O)[C@@H](CO)O2)c(=O)n1 [decitabine, 5-aza-2′-deoxycytidine]
decrease of concentration of decitabine ([1]; after 4 hours at 25° C.): about 10%
decrease of concentration of decitabine ([1]; after 24 hours at 4° C.): about 10%
decitabine concentration in patients ([2]; 100 mg/m^2 as a 3-hour infusion): about 0.4 μg/ml and ~2 μM
total urinary excretion, % of the administered dose ([2]; humans): less than 1%
volume of distribution ([2]; humans): about 4.6 L/kg
